According to US20230365488A1, “TRUXILLIC ACID MONOESTER-DERIVATIVES AS SELECTIVE FABP5 INHIBITORS AND PHARMACEUTICAL COMPOSITIONS AND USES THEREOF” (The Research Foundation for The State University of New York, priority 2020, published 2023):

Legend:
[1] = target: FABP7 (Homo sapiens (Human), UniProt O15540); experiment: FABP7 fluorescent probe displacement binding assay; conditions: average ± S.E. of at least three independent experiments
[2] = target: FABP3 (Homo sapiens (Human), UniProt P05413); experiment: FABP3 fluorescent probe displacement binding assay; conditions: average ± S.E. of at least three independent experiments
[3] = system: 22Rv1 cells; experiment: MTT cytotoxicity and taxane combination (CI) analysis, 22Rv1 (Example 6); assay type: cell-based, human; conditions: for CI value / Fa value / Relationship / IC50: 22Rv1; for CI value / Fa value / Relationship: 1y 7.5 μM or 1w 1.0 μM; for cytotoxicity of combination with docetaxel or cabazitaxel versus each drug administered independently: 22Rv1 cells; for IC50: Homo sapiens, MTT, 72-hour incubation, single agent
[4] = system: PC3 cells; experiment: MTT cytotoxicity and taxane combination (CI) analysis, PC3 (Example 6); assay type: cell-based, human; conditions: for IC50: Homo sapiens, PC-3, MTT, 72-hour incubation, single agent; for CI value / Fa value / Relationship: PC3, 1y 7.5 μM or 1w 1.0 μM; for cytotoxicity of combination with docetaxel or cabazitaxel versus each drug administered independently: PC3 cells
[5] = system: PC3 cells implanted subcutaneously; experiment: Subcutaneous PC3 tumor growth in nude mice; assay type: in vivo, male BALB/c nude mice; conditions: for tumor growth: ip
[6] = system: DU-145 cells; experiment: MTT cytotoxicity and taxane combination (CI) analysis, DU-145 (Example 6); assay type: cell-based, human; conditions: for CI value / Fa value / Relationship: 1y 7.5 μM or 1w 1.0 μM
[7] = MTT cytotoxicity, RWPE-1 (Example 6); assay type: cell-based; conditions: human, RWPE-1 cells (normal prostate cell line), 72-hour incubation
[8] = MTT cytotoxicity, WI-38 (Example 6); assay type: cell-based; conditions: human, WI-38 cells (normal lung cell line), 72-hour incubation
[9] = combination with cabazitaxel 0.03 nM
[10] = combination with cabazitaxel 0.3 nM
[11] = combination with cabazitaxel 3.0 nM
[12] = combination with docetaxel 0.03 nM
[13] = combination with docetaxel 0.3 nM
[14] = combination with docetaxel 3.0 nM
[15] = 20 mg/kg, once daily, from day 15, versus vehicle
[16] = DU-145, combination with cabazitaxel 0.03 nM
[17] = DU-145, combination with cabazitaxel 0.3 nM
[18] = DU-145, combination with cabazitaxel 3.0 nM
[19] = DU-145, combination with docetaxel 0.03 nM
[20] = DU-145, combination with docetaxel 0.3 nM
[21] = DU-145, combination with docetaxel 3.0 nM

FABP7, sequence (O15540 whole entry): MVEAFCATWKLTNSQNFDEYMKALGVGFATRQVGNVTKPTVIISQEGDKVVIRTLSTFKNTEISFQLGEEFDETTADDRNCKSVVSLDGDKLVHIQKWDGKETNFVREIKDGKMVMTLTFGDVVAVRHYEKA
FABP3, sequence (P05413 whole entry): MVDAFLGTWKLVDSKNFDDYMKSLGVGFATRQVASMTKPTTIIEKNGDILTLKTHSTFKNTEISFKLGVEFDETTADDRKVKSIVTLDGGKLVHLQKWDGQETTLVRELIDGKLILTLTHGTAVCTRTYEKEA

`COc1ccccc1[C@H]1[C@H](C(=O)O)[C@H](c2ccccc2OC)[C@H]1C(=O)OCC1c2ccccc2-c2ccccc21` (racemic) [Compound 1w] showed a Ki [1] of 4.26 ± 0.41 µM, a Ki [2] of 25.3 ± 4.57 µM and a CI value [3, 9] of 0.731. The Fa value [3, 9] was 0.577, the Relationship [3, 9] was “synergistic” and the CI value [3, 10] was 0.549. For the same compound, the Fa value [3, 10] was 0.728, the Relationship [3, 10] was “synergistic” and the CI value [3, 11] was 0.659. For the same compound, the Fa value [3, 11] was 0.823, the Relationship [3, 11] was “synergistic” and the CI value [3, 12] was 1.673. For the same compound, the Fa value [3, 12] was 0.457, the CI value [3, 13] was 0.373 and the Fa value [3, 13] was 0.744. The Relationship [3, 13] was “synergistic”, the CI value [3, 14] was 0.267 and the Fa value [3, 14] was 0.905. The Relationship [3, 14] was “synergistic”, the “cytotoxicity of combination with docetaxel or cabazitaxel versus each drug administered independently” value [3] was “greater cytotoxicity” and the IC50 [3] was 3.1 µM. It also gave an IC50 [4] of 6.3 µM, a CI value [4, 9] of 0.899 and a Fa value [4, 9] of 0.379. The Relationship [4, 9] was “synergistic”, the CI value [4, 10] was 0.942 and the Fa value [4, 10] was 0.420. The Relationship [4, 10] was “synergistic”, the CI value [4, 11] was 0.373 and the Fa value [4, 11] was 0.853. The Relationship [4, 11] was “synergistic”, the CI value [4, 12] was 0.710 and the Fa value [4, 12] was 0.402. For the same compound, the Relationship [4, 12] was “synergistic”, the CI value [4, 13] was 0.889 and the Fa value [4, 13] was 0.432. The Relationship [4, 13] was “synergistic”, the CI value [4, 14] was 0.394 and the Fa value [4, 14] was 0.700. The Relationship [4, 14] was “synergistic”, the “cytotoxicity of combination with docetaxel or cabazitaxel versus each drug administered independently” value [4] was “greater cytotoxicity” and the “tumor growth, coadministration with docetaxel” value ([5]; 20 mg/kg ip daily in combination with docetaxel 5 mg/kg weekly, comparable in magnitude to the 10 mg/kg docetaxel dose) was “greater inhibition of tumor growth than treatment with each compound alone”. For the same compound, the tumor growth [5, 15] was “significantly reduced tumor growth”, the CI value [6, 16] was 0.449 and the Fa value [6, 16] was 0.464. The Relationship [6, 16] was “synergistic”, the CI value [6, 17] was 0.300 and the Fa value [6, 17] was 0.716. For the same compound, the Relationship [6, 17] was “synergistic”, the CI value [6, 18] was 0.194 and the Fa value [6, 18] was 0.882. The Relationship [6, 18] was “synergistic”, the CI value [6, 19] was 4.473 and the Fa value [6, 19] was 0.516. The CI value [6, 20] was 2.697, the Fa value [6, 20] was 0.676 and the CI value [6, 21] was 0.445. The Fa value [6, 21] was 0.935, the Relationship [6, 21] was “synergistic” and the “cytotoxicity of combination with docetaxel or cabazitaxel versus each drug administered independently” value ([6]; DU-145 cells) was “greater cytotoxicity”. It also gave an IC50 ([6]; Homo sapiens, DU-145, MTT, 72-hour incubation, single agent) of 3.3 µM, an IC50 at 72 h [7] of 20.6 µM and an IC50 at 72 h [8] of 29.6 µM.

With `CC(=O)O[C@@]12CO[C@@H]1C[C@H](O)[C@@]1(C)C(=O)[C@H](O)C3=C(C)[C@@H](OC(=O)[C@H](O)[C@@H](NC(=O)OC(C)(C)C)c4ccccc4)C[C@@](O)([C@@H](OC(=O)c4ccccc4)[C@H]21)C3(C)C` [docetaxel, reference compound] the tumor growth ([5]; 10 mg/kg, once weekly) was “near complete inhibition of growth”.

Work on `COc1ccccc1[C@H]1[C@H](C(=O)O)[C@H](c2ccccc2OC)[C@H]1C(=O)Oc1cccc2ccccc12` (racemic) [Compound 1y] yielded a Ki [1] of 0.67 ± 0.04 µM, a Ki [2] of 0.69 ± 0.17 µM and a CI value [3, 9] of 0.707. For the same compound, the Fa value [3, 9] was 0.777, the Relationship [3, 9] was “synergistic” and the CI value [3, 10] was 0.396. For the same compound, the Fa value [3, 10] was 0.899, the Relationship [3, 10] was “synergistic” and the CI value [3, 11] was 0.003. For the same compound, the Fa value [3, 11] was 0.998, the Relationship [3, 11] was “synergistic” and the CI value [3, 12] was 3.846. The Fa value [3, 12] was 0.795, the CI value [3, 13] was 0.003 and the Fa value [3, 13] was 0.904. For the same compound, the Relationship [3, 13] was “synergistic”, the CI value [3, 14] was 0.005 and the Fa value [3, 14] was 0.999. For the same compound, the Relationship [3, 14] was “synergistic”, the “cytotoxicity of combination with docetaxel or cabazitaxel versus each drug administered independently” value [3] was “greater cytotoxicity” and the IC50 [3] was 10.1 µM. It also gave an IC50 [4] of 11.4 µM, a CI value [4, 9] of 0.0001 and a Fa value [4, 9] of 0.998. For the same compound, the Relationship [4, 9] was “synergistic”, the CI value [4, 10] was 0.0001 and the Fa value [4, 10] was 0.999. For the same compound, the Relationship [4, 10] was “synergistic”, the CI value [4, 11] was 0.0001 and the Fa value [4, 11] was 0.999. The Relationship [4, 11] was “synergistic”, the CI value [4, 12] was 0.897 and the Fa value [4, 12] was 0.786. The Relationship [4, 12] was “synergistic”, the CI value [4, 13] was 0.009 and the Fa value [4, 13] was 0.950. The Relationship [4, 13] was “synergistic”, the CI value [4, 14] was 0.160 and the Fa value [4, 14] was 0.992. For the same compound, the Relationship [4, 14] was “synergistic”, the “cytotoxicity of combination with docetaxel or cabazitaxel versus each drug administered independently” value [4] was “greater cytotoxicity” and the tumor growth [5, 15] was “significantly reduced tumor growth”. It also gave an IC50 at 72 h [7] of 26 µM and an IC50 at 72 h [8] of 29.4 µM.
